Among the data in US20260374792A1, “PHENYL-FREE BISCATIONIC QUATERNARY PHOSPHONIUM COMPOUNDS AS ANTIMICROBIAL AGENTS” (priority 2022, published 2026) are MIC and Lysis20 values, retold here.

One data set concerns MSSA (SH1000). Put plainly: MIC against methicillin-susceptible S. aureus (MSSA). Type of data set: cell-based. The note with it: Staphylococcus aureus; MSSA (SH1000); 72 hours, 37 °C; read-out: MIC. On the procedure: (§1) The term “minimum inhibitory concentration (MIC)” means the lowest concentration of an antimicrobial agent that will inhibit the visible growth of a microorganism after overnight incubation. MIC values against bacteria, for example, the Gram-positive Staphylococcus aureus and Enterococcus faecalis and the Gram-negative Escherichia coli and Pseudomonas aeruginosa were determined by standard methods. See also P. A. Wayne, Methods for Dilution Antimicrobial Tests for Bacteria that Grow Aerobically; Approved Standard, Ninth Edition, 2012, CLSI Document M07-A9, Vol. 32 No. 2.
(§2) Biological testing procedures were adapted from prior work by Melander and coworkers. For all biological assays, laboratory strains of methicillin-susceptible Staphylococcus aureus MSSA (SH1000), Staphylococcus aureus CA-MRSA (USA300-0114), Staphylococcus aureus HA-MRSA (ATCC 33591), Escherichia coli (MC4100), Enterococcus faecalis (OG1RF), Acinetobacter baumannii (ATCC 17978), were grown with shaking at 37 °C overnight from freezer stocks in 5 mL of the indicated media: SH1000, OG1RF, MC4100, USA300-0114, and ATCC 17978 were grown in BDTM Mueller-Hinton broth (MHB), whereas ATCC 33591 was grown in BDTM tryptic soy broth (TSB). The inoculum were then streaked onto Mueller-Hinton agar (MHA) plates and grown overnight at 37 °C. From the plates, single colonies were selected, diluted into 50 mL of fresh media and grown overnight at 37 °C with shaking for use in the MIC assays. Optical density (OD) measurements were obtained using a SpectraMax iD3 plate reader (Molecular Devices, United States).
(§3) Compounds were serially diluted two-fold from stock solutions (1.0 mM) to yield twelve 100 μL test concentrations, wherein the starting concentration of dimethyl sulfoxide (DMSO) was 2.5%. Overnight S. aureus, E. faecalis, E. coli, A. baumannii, USA300-0114 (CA-MRSA), and ATCC 33591 (HA-MRSA) cultures were diluted to ca. 10^6 CFU/mL in MHB or TSB and regrown to mid-exponential phase, as determined by optical density recorded at 600 nm (OD600). All cultures were then diluted again to ca. 10^6 CFU/mL and 100 μL were inoculated into each well of a U-bottom 96-well plate (Corning, 351177) containing 100 μL of compound solution. Plates were incubated statically at 37 °C for 72 hours upon which wells were evaluated visually for bacterial growth. The MIC was determined as the lowest concentration of compound resulting in no bacterial growth visible to the naked eye, based on the highest value in three independent experiments. Aqueous DMSO controls were conducted as appropriate for each compound.
(§4) The prepared library of biscationic amphiphilic compounds was assessed for performance as antibacterial disinfectants by determining the minimum inhibitory concentration (MIC) for each against a panel of bacteria. The bacteria selected for the study were chosen to evaluate the broad spectrum antimicrobial performance of the QPCs, and therefore, included both Gram-positive and Gram-negative bacterial strains, including those with known antimicrobial resistance mechanisms. These bacteria include the Gram-positive strains of methicillin-susceptible Staphylococcus aureus [MSSA; SH1000], community-acquired methicillin-resistant Staphylococcus aureus [CA-MRSA; USA 300-0114], hospital-acquired methicillin-resistant Staphylococcus aureus [HA-MRSA; ATCC 33591] and the […], Escherichia coli [MC4100], Acinetobacter baumannii [ATCC 17498] and Pseudomonas aeruginosa [PAO1].

Another data set concerns CA-MRSA (USA300-0114). Put plainly: MIC against community-acquired methicillin-resistant S. aureus (CA-MRSA). It counts as cell-based. The conditions noted are these: Staphylococcus aureus, 72 h. The protocol:
as §1, §2, §3, §4

For a further data set, the system named is HA-MRSA (ATCC 33591). Put plainly: MIC against hospital-acquired methicillin-resistant S. aureus (HA-MRSA). It counts as cell-based. The conditions noted are these: Staphylococcus aureus, 72 h. The protocol:
as §1, §2, §3, §4

A further data set has as its system E. faecalis (OG1RF). The experiment in a line: MIC against E. faecalis. Type of data set: cell-based. The note with it: Enterococcus faecalis, 72 h. The protocol: as §1, §2, §3, §4
The next data set concerns E. coli (MC4100). The experiment in a line: MIC against E. coli. Type of data set: cell-based. The conditions noted are these: Escherichia coli, 72 hours, 37 °C. The protocol: as §1, §2, §3, §4
A further data set concerns A. baumannii. Put plainly: MIC against A. baumannii. Type of data set: cell-based. The conditions noted are these: Acinetobacter baumannii, 72 h. The protocol: as §1, §2, §3, §4
In another data set the test system is P. aeruginosa (PAO1). Put plainly: MIC against P. aeruginosa. The note with it: Pseudomonas aeruginosa; P. aeruginosa (PAO1); 72 hours, 37 °C; read-out: MIC. It counts as cell-based. On the procedure: as §1, §2, §3, §4
Another data set concerns red blood cells. The experiment in a line: Red Blood Cell (RBC) Lysis Assay (lysis20). Type of data set: cell-based, sheep. The conditions noted are these: concentration inducing 20% RBC lysis; sheep blood, 1 hour, 37 °C. On the procedure: RBC lysis assays were performed on mechanically defibrinated sheep blood (Hemostat Labs: DSB030). An aliquot of 1.5 mL blood was placed into a microcentrifuge tube and centrifuged at 3,800 rpm for ten minutes. The supernatant was removed, and the cells were resuspended with 1 mL of phosphate-buffered saline (PBS). The suspension was centrifuged as described above, the supernatant was removed, and cells were resuspended 4 additional times in 1 mL PBS. The final cell suspension was diluted twentyfold with PBS. Compounds were serially diluted with PBS two-fold from stock solutions (1.0 mM) to yield 100 μL of twelve test concentrations on a flat-bottom 96-well plate (Corning, 351172), wherein the starting concentration of DMSO was 2.5%. To each of the wells, 100 μL of the twentyfold suspension dilution was then inoculated. TritonX (1% by volume) served as a positive control (100% lysis marker) and sterile PBS served as a negative control (0% lysis marker). Samples were then placed in an incubator at 37 °C and shaken at 200 rpm. After 1 hour, the samples were centrifuged at 3,800 rpm for ten minutes. The absorbance of the supernatant was measured with a UV spectrometer at a 540 nm wavelength. The concentration inducing 20% RBC lysis was then calculated for each compound based upon the absorbances of the TritonX and PBS controls. Aqueous DMSO controls were conducted as appropriate for each compound.
The potential cytotoxicity of the compounds was also considered with the evaluation of hemolysis (lysis20) assays with 20% lysis of red blood cells serving as an indicator of potentially toxic compounds. Finally, the bioactivity of these compounds were benchmarked against a commercial benzalkonium chloride source (BAC; 70% benzyldimethyldodecylammonium chloride, and 30% benzyldimethyltetradecylammonium chloride) as well as some previously reported disinfectant compounds from the inventors' groups; included were bisQPC ^PhP6P-10,10 as well as ^PhP2P-10,10 and 12(2)12. A detailed description of the experimental procedures used to evaluate bioactivity and hemolysis assays are described above.

As for `CCCCCCCC[P+](CC[P+](CCCCCCCC)(C1CCCCC1)C1CCCCC1)(C1CCCCC1)C1CCCCC1` [^CyP2P-8,8], the MIC with MSSA (SH1000) amounted to 2 µM; in the data set on CA-MRSA (USA300-0114), 2 µM; against HA-MRSA (ATCC 33591), 8 µM; in the data set on E. faecalis (OG1RF) it was 63 µM; in the data set with E. coli (MC4100) it was 63 µM; with A. baumannii, 125 µM. For the same molecule, the minimal inhibitory concentration (MIC) in the data set with P. aeruginosa (PAO1) amounted to 250 µM. In the data set on red blood cells, the Lysis20 came out at 125 µM.
On to `CCCCCCCCCC[P+](CC[P+](CCCCCCCCCC)(C1CCCCC1)C1CCCCC1)(C1CCCCC1)C1CCCCC1` [^CyP2P-10,10], for which the MIC with MSSA (SH1000) came to 1 µM; against CA-MRSA (USA300-0114) it was 1 µM; in the data set with HA-MRSA (ATCC 33591) it was 1 µM; in the data set with E. faecalis (OG1RF), 8 µM; with E. coli (MC4100), 8 µM; in the data set on A. baumannii, 8 µM. Moreover, the MIC in the data set on P. aeruginosa (PAO1) turned out to be 8 µM. The Lysis20 in the data set with red blood cells came out at 16 µM.
Turning to `CCCCCCCCCCCC[P+](CC[P+](CCCCCCCCCCCC)(C1CCCCC1)C1CCCCC1)(C1CCCCC1)C1CCCCC1` [^CyP2P-12,12], the MIC in the data set with MSSA (SH1000) was 2 µM; against CA-MRSA (USA300-0114) it was 2 µM; against HA-MRSA (ATCC 33591), 2 µM; against E. faecalis (OG1RF) it was 16 µM; against E. coli (MC4100), 8 µM; in the data set on A. baumannii it was 4 µM. The MIC in the data set on P. aeruginosa (PAO1) came out at 16 µM. The same molecule came in with a Lysis20 in the data set with red blood cells of 16 µM.
For `CCCCCCCCCCCCC[P+](CC[P+](CCCCCCCCCCCCC)(C1CCCCC1)C1CCCCC1)(C1CCCCC1)C1CCCCC1` [^CyP2P-13,13], the MIC in the data set on MSSA (SH1000) came to 2 µM; against CA-MRSA (USA300-0114) it was 2 µM; against HA-MRSA (ATCC 33591), 1 µM; in the data set on E. faecalis (OG1RF), 32 µM; in the data set with E. coli (MC4100), 32 µM; in the data set with A. baumannii, 16 µM. The MIC in the data set on P. aeruginosa (PAO1) is 63 µM. This molecule also showed a Lysis20 in the data set on red blood cells of 8 µM.
On to `CCCCCCCCCCCCCC[P+](CC[P+](CCCCCCCCCCCCCC)(C1CCCCC1)C1CCCCC1)(C1CCCCC1)C1CCCCC1` [^CyP2P-14,14], for which the MIC with MSSA (SH1000) came out at 4 µM; with CA-MRSA (USA300-0114), 4 µM; against HA-MRSA (ATCC 33591), 2 µM; against E. faecalis (OG1RF) it was 32 µM; against E. coli (MC4100), 63 µM; with A. baumannii, 63 µM. Also, in the data set with P. aeruginosa (PAO1), the MIC amounted to 63 µM. Further, the Lysis20 in the data set on red blood cells worked out at 8 µM.
`CCCCCCCCCCCCCCCC[P+](CC[P+](CCCCCCCCCCCCCCCC)(C1CCCCC1)C1CCCCC1)(C1CCCCC1)C1CCCCC1` [^CyP2P-16,16]: the MIC with MSSA (SH1000) turned out to be 8 µM; against CA-MRSA (USA300-0114), 2 µM; in the data set on HA-MRSA (ATCC 33591), 2 µM; in the data set with E. faecalis (OG1RF) it was 125 µM; with E. coli (MC4100), 125 µM; against A. baumannii, 125 µM. For the same molecule, the MIC in the data set with P. aeruginosa (PAO1) was found to be 63 µM. In addition, the Lysis20 with red blood cells was 32 µM.
As to `CCCCCCCC[P+](CC)(CC)CC[P+](CC)(CC)CCCCCCCC` [^EtP2P-8,8], the MIC in the data set on MSSA (SH1000) was 63 µM; in the data set on CA-MRSA (USA300-0114) it was 125 µM; in the data set on HA-MRSA (ATCC 33591) it was 250 µM; against E. faecalis (OG1RF), over 250 µM; in the data set with E. coli (MC4100), over 250 µM; with A. baumannii, over 250 µM. The MIC in the data set on P. aeruginosa (PAO1) is over 250 µM. In the data set on red blood cells, this molecule gave a Lysis20 of 250 µM.
